Experimental data reported in patent US6224857A, “Pharmaceutical preparations comprised of salts of hyaluronic acid with local anaesthetics” (Fidia, S.p.A., priority 1996, dated 2001).
Counter-ions that a name gives are not always drawn.

Test system: rabbit cornea
Assay: Corneal anaesthesia in rabbit (blinking reflex, Camougis and Tankman method)
Type: in vivo
Details: rabbit eye
Method: […] of solution was instilled in the conjunctival sac. The blinking reflex, tested with a bristle, was measured before instillation and then every 5-10 minutes until one hour after treatment. At each test time the degree of anaesthesia was expressed by means of a score of up to 10 given by the number of stimulations before the eye-blink reflex was obtained. The overall anaesthetic effect for each compound was then quantified by the area under curve (AUC) of the degree of anaesthesia over time.

[1] = Table 1, dose 0.125% (as hydrochloride), reference Bupivacaine HCl = 100
[2] = Table 5, dose 0.125%, degree of salification, 500-730 kDa, reference Bupivacaine HCl = 100

CN(C)CCCOc1nn(Cc2ccccc2)c2ccccc12 [Benzydamine HCl, benzydamine hydrochloride] was tested, and the “Anaesthesia (AUC)” value (Table 1, dose 0.125% (as hydrochloride), reference Benzydamine HCl = 100) was 100 and the “Anaesthesia (AUC)” value (Table 6, dose 0.125%, degree of salification, 50-350 kDa, reference Benzydamine HCl = 100) was 100.

In the case of CCCCN1CCCCC1C(=O)Nc1c(C)cccc1C (stereo not drawn) [Bupivacaine HCl, bupivacaine hydrochloride], the “Anaesthesia (AUC)” value [1] is reported as 100, the “Anaesthesia (AUC)” value (Table 3, first group (50% Na salts), dose 0.125%, reference Bupivacaine HCl = 100) is reported as 100 and the “Anaesthesia (AUC)” value (Table 3, second group (50% Ca salts), dose 0.125%, reference Bupivacaine HCl = 100) is reported as 100. The “Anaesthesia (AUC)” value [2] was 100.

“stoichiometrically neutral salt of hyaluronic acid with bupivacaine [FID 60.2082]” was tested, and the “Anaesthesia (AUC)” value [1] was 166 and the “Anaesthesia (AUC)” value (Table 2, dose 0.125%, FID 60.20XX (50-350 kDa), reference FID 60.2082 = 100) was 100.

In the case of “stoichiometrically neutral salt of hyaluronic acid with bupivacaine [FID 61.2082]”, the “Anaesthesia (AUC)” value (Table 2, dose 0.125%, FID 61.20XX (500-730 kDa), reference FID 61.2082 = 100) is reported as 100 and the “Anaesthesia (AUC)” value [2] is reported as 314.

For “stoichiometrically neutral salt of hyaluronic acid with bupivacaine [FID 62.2082]”, the “Anaesthesia (AUC)” value (Table 2, dose 0.125%, FID 62.20XX (750-1200 kDa), reference FID 62.2082 = 100) was 100.

For “stoichiometrically neutral salt of hyaluronic acid with lidocaine [FID 60.2070]”, the “Anaesthesia (AUC)” value (Table 1, dose 1% (as hydrochloride), reference Lidocaine HCl = 100) was 167.
